Where “and” joins values, the source holds several entries; their conditions need not be identical. Equal entries are not always repeated. Calls of active or inactive are those of the source. The calls are words filed in the database; no cut-off is given here.
Columns and labels:
MGC-803 [1] = experiment: Induction of apoptosis in human MGC-803 cells assessed as viable cells at 2.5 uM incubated for 48 hrs by annexin V FITC/propidium iodide staining based flow cytometry (reference value: 94.4 %); format: functional; settings: read-out: Activity
HGC-27 [2] = experiment: Induction of cell cycle arrest in human HGC-27 cells assessed as upregulation of p21 expression at 0.5 to 8 uM incubated for 48 hrs by Western blot analysis; format: functional, cell-based; settings: dose 0.5-8 µM
HGC-27 [3] = experiment: Induction of apoptosis in human HGC-27 cells assessed as early apoptotic cells at 0.5 uM incubated for 48 hrs by annexin V FITC/propidium iodide staining based flow cytometry (reference value: 0.66 %); format: functional
HGC-27 [4] = experiment: Induction of apoptosis in human HGC-27 cells assessed as upregulation in cytochrome c expression at 0.1 to 1.6 uM incubated for 48 hrs by Western blot analysis; format: functional, cell-based; settings: dose 0.1-1.6 µM
MGC-803 [5] = experiment: Induction of apoptosis in human MGC-803 cells assessed as early apoptotic cells at 20 uM incubated for 48 hrs by annexin V FITC/propidium iodide staining based flow cytometry (reference value: 0.42 %); format: functional
[6] = Toxicity in BALB/c mouse xenografted with human HGC-27 cells assessed as mean platelet volume at 150 mg/kg, po bid for 19 days; format: organism-based; settings: in vivo, 456 h, time 19 day
HGC-27 [7] = experiment: Induction of apoptosis in human HGC-27 cells assessed as necrotic cells at 0.1 uM incubated for 48 hrs by annexin V FITC/propidium iodide staining based flow cytometry (reference value: 1.24 %); format: functional
[8] = Toxicity in BALB/c mouse xenografted with human HGC-27 cells assessed as lymphocyte level at 150 mg/kg, po bid for 19 days; format: organism-based; settings: in vivo, 456 h, time 19 day
[9] = Toxicity in BALB/c mouse xenografted with human HGC-27 cells assessed as granulocyte level at 75 mg/kg, po bid for 19 days; format: organism-based; settings: in vivo, 456 h, time 19 day
HGC-27 [10] = experiment: Induction of cell cycle arrest in human HGC-27 cells assessed as reduction in accumulation of cells at S phase at 0.1 to 1.6 uM incubated for 24 hrs by PI staining based flow cytometry analysis; format: functional; settings: dose 0.1-1.6 µM
HGC-27 [11] = experiment: Induction of apoptosis in human HGC-27 cells assessed as necrotic cells at 0.4 uM incubated for 48 hrs by annexin V FITC/propidium iodide staining based flow cytometry (reference value: 1.24 %); format: functional
[12] = Acute toxicity in Kunming mouse assessed as effect on liver pathology at 1000 mg/kg, po measured after 14 days; format: organism-based; settings: in vivo, 336 h, time 14 day
[13] = Toxicity in BALB/c mouse xenografted with human HGC-27 cells assessed as mean corpuscular volume at 150 mg/kg, po bid for 19 days; format: organism-based; settings: in vivo, 456 h, time 19 day
[14] = Toxicity in BALB/c mouse xenografted with human HGC-27 cells assessed as platelet level at 150 mg/kg, po bid for 19 days; format: organism-based; settings: in vivo, 456 h, time 19 day
HGC-27 [15] = experiment: Induction of cell cycle arrest in human HGC-27 cells assessed as upregulation of p27 expression at 0.1 to 1.6 uM incubated for 48 hrs by Western blot analysis; format: functional, cell-based; settings: dose 0.1-1.6 µM
[16] = Toxicity in BALB/c mouse xenografted with human HGC-27 cells assessed as lymphocyte level at 75 mg/kg, po bid for 19 days; format: organism-based; settings: in vivo, 456 h, time 19 day
HGC-27 [17] = experiment: cells; format: functional, cell-based; settings: Homo sapiens, HGC-27, 72 h
Description: Cytotoxicity against human HGC-27 cells assessed as inhibition of cell growth incubated for 72 hrs by MTT assay

HGC-27 [18] = experiment: Induction of apoptosis in human HGC-27 cells assessed as early apoptotic cells at 1.6 uM incubated for 48 hrs by annexin V FITC/propidium iodide staining based flow cytometry (reference value: 0.66 %); format: functional
HGC-27 [19] = experiment: Induction of apoptosis in human HGC-27 cells assessed as late apoptotic cells at 0.1 uM incubated for 48 hrs by annexin V FITC/propidium iodide staining based flow cytometry (reference value: 5.14 %); format: functional

SMILES | viability at 2.5 µM (MGC-803 [1]) [%] | Activity (HGC-27 [2]) | Activity (HGC-27 [3]) [%] | Activity (HGC-27 [4]) | Activity (MGC-803 [5]) [%] | Activity [6] [fL] | Activity (HGC-27 [7]) [%] | Activity [8] | Activity [9] [%] | Activity (HGC-27 [10]) | Activity (HGC-27 [11]) [%] | Activity [12] | Activity [13] [fL] | Activity [14] | Activity (HGC-27 [15]) | Activity [16] | IC50 (HGC-27 [17]) [nM] | Activity (HGC-27 [18]) [%] | Activity (HGC-27 [19]) [%]
O=C(NCc1ccc(NC(=O)c2ccccc2N2CCCC2)cc1)OCc1cccnc1 | 80.3 | Active | 0.92 | – | – | – | – | – | – | – | – | – | – | – | – | – | – | – | –
O=C(NCc1ccc(NC(=O)c2cc(F)ccc2N2CCCC2)cc1)OCc1cccnc1 | – | – | – | Active | 16.8 | 6.28 | 0.86 | 5.77 10^9/L and 7.2% | 91.4 | Active | 5.43 | Non-Toxic | 49.83 | 1711 10^9/L | Active | 5.03 10^9/L and 6.57% | 280 | 0.31 | 14.2
